Activity calls are given as the source filed them. The calls are words filed in the database; no cut-off is given here.
Assays:
[1] = Inhibition of Respiratory syncytial virus RNA polymerase in crude RSV RNP complex assessed as inhibition of [33P]CMP incorporation into RNA chain
[2] = system: Respiratory syncytial virus; experiment: Antiviral activity against Respiratory syncytial virus subgenomic replicon system in 395 HeLa cells assessed as reduction in viral replication after 7 days by renilla luciferase assay; assay type: functional, organism-based; conditions: human respiratory syncytial virus, 168 h
[3] = Cytotoxicity against human HeLa cells assessed as cell viability by CellTiter-Glo luminescent assay; assay type: cell-based
Homo sapiens [4] = species on record: Homo sapiens; experiment: Inhibition of human DNA-dependent DNA polymerase gamma using calf thymus DNA/[3H]dTTP as substrate by microplate scintillation reader; conditions: concentration not given here
[5] = biological target: DNA-directed RNA polymerase, mitochondrial (Homo sapiens) (UniProt O00411); experiment: Inhibition of human mitochondrial RNA polymerase assessed as 13-mer product using [33P]RNA/DNA primer/templates used by […] gel electrophoresis
[6] = biological target: DNA polymerase beta (Homo sapiens) (UniProt P06746); experiment: Inhibition of human DNA-dependent DNA polymerase beta using calf thymus DNA/[3H]dTTP as substrate by microplate scintillation reader; conditions: concentration not given here
Homo sapiens [7] = species on record: Homo sapiens; experiment: Inhibition of human DNA-directed RNA polymerase 2 using cytomegalovirus DNA fragment as substrate; conditions: concentration not given here
Homo sapiens [8] = species on record: Homo sapiens; experiment: Inhibition of human DNA-dependent DNA polymerase alpha using calf thymus DNA/[3H]dTTP as substrate by microplate scintillation reader; conditions: concentration not given here
[9] = biological target: DNA-directed RNA polymerase, mitochondrial (Homo sapiens) (UniProt O00411); experiment: Binding affinity to human mitochondrial RNA polymerase assessed as compound incorporation using [33P]RNA/DNA primer/templates used by […] gel electrophoresis

DNA-directed RNA polymerase, mitochondrial (Homo sapiens), sequence (O00411 whole entry): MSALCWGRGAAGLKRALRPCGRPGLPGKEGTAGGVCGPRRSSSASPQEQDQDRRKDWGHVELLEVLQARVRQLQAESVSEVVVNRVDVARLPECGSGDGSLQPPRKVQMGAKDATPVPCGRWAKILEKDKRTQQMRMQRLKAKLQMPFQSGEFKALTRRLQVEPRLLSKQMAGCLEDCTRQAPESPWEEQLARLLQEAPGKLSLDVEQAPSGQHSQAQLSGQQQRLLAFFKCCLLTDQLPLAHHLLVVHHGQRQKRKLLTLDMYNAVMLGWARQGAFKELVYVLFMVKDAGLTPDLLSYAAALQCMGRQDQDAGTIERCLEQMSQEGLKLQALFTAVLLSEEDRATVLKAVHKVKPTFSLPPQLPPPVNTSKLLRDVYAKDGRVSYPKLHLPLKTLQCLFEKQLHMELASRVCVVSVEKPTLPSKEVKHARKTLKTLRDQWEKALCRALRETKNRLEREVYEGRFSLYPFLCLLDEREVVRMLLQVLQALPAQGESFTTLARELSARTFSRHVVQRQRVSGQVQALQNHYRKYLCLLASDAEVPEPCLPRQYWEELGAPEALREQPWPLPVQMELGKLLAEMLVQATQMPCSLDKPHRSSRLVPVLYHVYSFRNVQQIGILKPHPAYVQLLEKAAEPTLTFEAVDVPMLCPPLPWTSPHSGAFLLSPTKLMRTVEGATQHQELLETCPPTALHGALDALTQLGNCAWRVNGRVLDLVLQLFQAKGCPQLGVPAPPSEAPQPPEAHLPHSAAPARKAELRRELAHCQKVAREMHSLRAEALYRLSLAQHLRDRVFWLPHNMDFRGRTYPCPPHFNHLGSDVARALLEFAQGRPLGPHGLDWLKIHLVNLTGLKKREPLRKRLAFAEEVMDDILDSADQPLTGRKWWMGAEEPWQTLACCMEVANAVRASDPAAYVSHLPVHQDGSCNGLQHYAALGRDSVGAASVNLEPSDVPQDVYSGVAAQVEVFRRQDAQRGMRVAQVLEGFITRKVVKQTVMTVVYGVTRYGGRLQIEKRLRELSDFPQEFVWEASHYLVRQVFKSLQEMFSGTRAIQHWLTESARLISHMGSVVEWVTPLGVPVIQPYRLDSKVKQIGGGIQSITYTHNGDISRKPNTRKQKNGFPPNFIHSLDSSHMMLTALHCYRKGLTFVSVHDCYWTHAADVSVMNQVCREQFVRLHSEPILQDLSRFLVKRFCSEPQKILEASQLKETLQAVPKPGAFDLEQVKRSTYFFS

SMILES	IC50 [1] [nM]	EC50 [2] [nM]	CC50 [3] [nM]	other results
CCC[C@]1(COP(=O)(O)OP(=O)(O)OP(=O)(O)O)O[C@@H](n2ccc(N)nc2=O)[C@H](F)[C@@H]1O	2000			
C[C@]1(COP(=O)(O)OP(=O)(O)OP(=O)(O)O)O[C@@H](n2ccc(N)nc2=O)[C@H](F)[C@@H]1O	10			
CCCCCCCC(=O)O[C@H]1[C@@H](F)[C@H](n2ccc(N)nc2=O)O[C@@]1(CO)CCl		220	> 70000	
CSC[C@]1(COP(=O)(O)OP(=O)(O)OP(=O)(O)O)O[C@@H](n2ccc(N)nc2=O)[C@H](F)[C@@H]1O	2700			
Nc1ccn([C@@H]2O[C@](CCl)(COP(=O)(O)OP(=O)(O)OP(=O)(O)O)[C@@H](O)[C@H]2F)c(=O)n1	20			inhibition (Homo sapiens [4]): < 50%; inhibition [5]: inactive; inhibition [6]: < 50%; inhibition (Homo sapiens [7]): < 50%; inhibition (Homo sapiens [8]): < 50%
Nc1ccn([C@@H]2O[C@H](COP(=O)(O)OP(=O)(O)OP(=O)(O)O)[C@@H](O)[C@@H]2O)c(=O)n1				inhibition [5]: Active; Activity [9]: Active
C=C[C@]1(CO)O[C@@H](n2ccc(N)nc2=O)[C@H](F)[C@@H]1O		1910	> 100000	
Nc1ccn([C@@H]2O[C@@](CO)(CCl)[C@@H](O)[C@H]2O)c(=O)n1		> 100000	> 100000	
CCCCC(=O)OC[C@@]1(CCl)O[C@@H](n2ccc(N)nc2=O)[C@H](F)[C@@H]1OC(=O)CCCC		130	> 100000	
[N-]=[N+]=N[C@]1(CO)O[C@@H](n2ccc(N)nc2=O)[C@@H](O)[C@@H]1O		520	> 100000	
CCCCCCCCCCCC(=O)O[C@H]1[C@@H](F)[C@H](n2ccc(N)nc2=O)O[C@@]1(CO)CCl		270	> 89000	
CC(C)C(=O)OC[C@@]1(CCl)O[C@@H](n2ccc(N)nc2=O)[C@H](F)[C@@H]1O		100	> 90000	
C=CC[C@]1(COP(=O)(O)OP(=O)(O)OP(=O)(O)O)O[C@@H](n2ccc(N)nc2=O)[C@H](F)[C@@H]1O	90			
CCCCCCCC(=O)OC[C@@]1(CCl)O[C@@H](n2ccc(N)nc2=O)[C@H](F)[C@@H]1OC(=O)CCCCCCC		280	> 66000	
C[C@]1(CO)O[C@@H](n2ccc(N)nc2=O)[C@H](F)[C@@H]1O		2140	> 100000	
Nc1ccn([C@@H]2O[C@@](CO)(CCl)[C@@H](O)[C@@H]2F)c(=O)n1		> 100000	> 100000	
Nc1ccn([C@@H]2O[C@](CCl)(COP(=O)(O)OP(=O)(O)OP(=O)(O)O)[C@@H](O)[C@@H]2F)c(=O)n1	4900			
CC[C@]1(COP(=O)(O)OP(=O)(O)OP(=O)(O)O)O[C@@H](n2ccc(N)nc2=O)[C@H](F)[C@@H]1O	150			inhibition (Homo sapiens [4]): < 50%; inhibition [5]: inactive; inhibition [6]: < 50%; inhibition (Homo sapiens [7]): < 50%; inhibition (Homo sapiens [8]): < 50%
[N-]=[N+]=N[C@]1(CO)O[C@@H](n2ccc(N)nc2=O)[C@H](O)[C@@H]1O [4'-AZIDOCYTIDINE]		670	> 80000	
CCC(=O)OC[C@@]1(CCl)O[C@@H](n2ccc(N)nc2=O)[C@H](F)[C@@H]1OC(=O)CC		40	> 100000	
C#C[C@]1(CO)O[C@@H](n2ccc(N)nc2=O)[C@H](F)[C@@H]1O		1120	> 100000	
Nc1ccn([C@@H]2O[C@@](CO)(CBr)[C@@H](O)[C@H]2F)c(=O)n1		480	> 100000	
Nc1ccn([C@@H]2O[C@](CF)(COP(=O)(O)OP(=O)(O)OP(=O)(O)O)[C@@H](O)[C@H]2F)c(=O)n1	120			inhibition (Homo sapiens [4]): < 50%; inhibition [5]: Active; inhibition [6]: < 50%; inhibition (Homo sapiens [7]): < 50%; inhibition (Homo sapiens [8]): < 50%; Activity [9]: Active
CCCCCCCC(=O)OC[C@@]1(CCl)O[C@@H](n2ccc(N)nc2=O)[C@H](F)[C@@H]1O		30	> 100000	

SMILES	IC50 [1] [nM]	EC50 [2] [nM]	CC50 [3] [nM]	other results
Nc1ccn([C@@H]2O[C@](CCl)(COP(=O)(O)OP(=O)(O)OP(=O)(O)O)[C@@H](O)[C@H]2O)c(=O)n1	1600			
CCCCCC(=O)OC[C@@]1(CCl)O[C@@H](n2ccc(N)nc2=O)[C@H](F)[C@@H]1OC(=O)CCCCC		220	> 100000	
CO[C@]1(COP(=O)(O)OP(=O)(O)OP(=O)(O)O)O[C@@H](n2ccc(N)nc2=O)[C@H](F)[C@@H]1O	70			
[N-]=[N+]=N[C@]1(COP(=O)(O)OP(=O)(O)OP(=O)(O)O)O[C@@H](n2ccc(N)nc2=O)[C@@H](O)[C@@H]1O	200			
Nc1ccn([C@@H]2O[C@H](COP(=O)(O)OP(=O)(O)OP(=O)(O)O)[C@@H](O)[C@H]2F)c(=O)n1				inhibition [5]: Active; Activity [9]: Active
CSC[C@]1(CO)O[C@@H](n2ccc(N)nc2=O)[C@H](F)[C@@H]1O		510	> 63000	
[N-]=[N+]=N[C@]1(CO)O[C@@H](n2ccc(N)nc2=O)[C@H](F)[C@@H]1O		190	> 100000	
[N-]=[N+]=N[C@]1(COP(=O)(O)OP(=O)(O)OP(=O)(O)O)O[C@@H](n2ccc(N)nc2=O)C(F)(F)[C@@H]1O	300			inhibition (Homo sapiens [4]): < 50%; inhibition [5]: inactive; inhibition [6]: < 50%; inhibition (Homo sapiens [7]): < 50%; inhibition (Homo sapiens [8]): < 50%
Nc1ccn([C@@H]2O[C@H](COP(=O)(O)OP(=O)(O)OP(=O)(O)O)[C@@H](O)C2(F)F)c(=O)n1				inhibition [5]: Active; Activity [9]: Active
Nc1ccn([C@@H]2O[C@@](CO)(CCl)[C@@H](O)C2(F)F)c(=O)n1		65000	62000	
CC(C)[C@H](N)C(=O)OC[C@@]1(CCl)O[C@@H](n2ccc(N)nc2=O)[C@H](F)[C@@H]1O		40	> 100000	
[N-]=[N+]=N[C@]1(COP(=O)(O)OP(=O)(O)OP(=O)(O)O)O[C@@H](n2ccc(N)nc2=O)[C@H](O)[C@@H]1O	240			
Nc1ccn([C@@H]2O[C@@](COP(=O)(O)OP(=O)(O)OP(=O)(O)O)(C3CC3)[C@@H](O)[C@H]2F)c(=O)n1	200			
CC(C)C(=O)O[C@H]1[C@@H](F)[C@H](n2ccc(N)nc2=O)O[C@@]1(CO)CCl		160	> 88000	
CO[C@]1(CO)O[C@@H](n2ccc(N)nc2=O)[C@H](F)[C@@H]1O		12700	> 100000	
CCC[C@]1(CO)O[C@@H](n2ccc(N)nc2=O)[C@H](F)[C@@H]1O		2690	> 100000	
Nc1ccn([C@@H]2O[C@@](CO)(C3CC3)[C@@H](O)[C@H]2F)c(=O)n1		560	> 100000	
[N-]=[N+]=N[C@]1(COP(=O)(O)OP(=O)(O)OP(=O)(O)O)O[C@@H](n2ccc(N)nc2=O)[C@H](F)[C@@H]1O	100			inhibition [5]: Active; Activity [9]: Active
[N-]=[N+]=N[C@]1(CO)O[C@@H](n2ccc(N)nc2=O)C(F)(F)[C@@H]1O		750	> 100000	
C#C[C@]1(COP(=O)(O)OP(=O)(O)OP(=O)(O)O)O[C@@H](n2ccc(N)nc2=O)[C@H](F)[C@@H]1O	130			
C=CC[C@]1(CO)O[C@@H](n2ccc(N)nc2=O)[C@H](F)[C@@H]1O		2640	> 100000	
C=C[C@]1(COP(=O)(O)OP(=O)(O)OP(=O)(O)O)O[C@@H](n2ccc(N)nc2=O)[C@H](F)[C@@H]1O	90			
Nc1ccn([C@@H]2O[C@](CBr)(COP(=O)(O)OP(=O)(O)OP(=O)(O)O)[C@@H](O)[C@H]2F)c(=O)n1	150			
Nc1ccn([C@@H]2O[C@@](CO)(CCl)[C@@H](O)[C@@H]2O)c(=O)n1		> 100000	> 100000	

— ChEMBL document CHEMBL3414561, “Discovery of 4'-chloromethyl-2'-deoxy-3',5'-di-O-isobutyryl-2'-fluorocytidine (ALS-8176), a first-in-class RSV polymerase inhibitor for treatment of human respiratory syncytial virus infection” (J Med Chem, 2015)
